Tests used:
MTLn3 = assay: 3D collagen invasion assay of MTLn3 carcinoma cells (macrophage co-culture or BMM conditioned media); format: cell-based; conditions: KO CM with exogenously added 25 nM EGF (FIG. 2C)
Source text: FIG. 1A-1D. WASP is required for macrophage-dependent breast carcinoma cell invasion. (A) Schematic illustration of the 3D invasion assay. (B) X-Z reconstruction of confocal images of 3D invasion assay using celltracker green labeled carcinoma cells (MTLn3) cultured on their own or co-cultured with celltracker red labeled primary bone marrow derived macrophages (BMM) isolated from either wild type (WT) or WASP knockout (WASP−/−) mice. Dotted line indicates the arbitrary threshold for measuring invasion at 20 μm (˜2 cell diameter). Quantification of cell tracker dye labeled (C) macrophage and (D) MTLn3 invasion. Fluorescence from cells was recorded at 5 μm step size. Collagen invasion is plotted as fraction of cells where fluorescence intensities above 20 μm are divided by total fluorescence from the entire stack (n=3 mice per genotype, age and sex matched). […]
FIG. 2A-2C. […] (A) Quantification of the MTLn3 invasion by MTLn3 cells alone, in response to wildtype BMM conditioned media (WT-CM) or conditioned media from WASP deficient mice (+KO CM) p<** 0.01 ***0.001 compared to wild-type macrophage conditioned media (WT CM). (B) Quantification of the MTLn3 invasion by MTLn3 cells alone, with wildtype BMM conditioned media (WT-CM) alone or with control IgG (Ctrl IgG) or with two different neutralizing anti-EGF antibodies generated in goat or rabbit (nEGF-G or nEGF-R). […]

MTLn3 tumor = assay: in vivo needle invasion assay; parameters: species or system mice; conditions: needle with EGF vs buffer, 4 hours (FIG. 6)
Experimental: FIG. 6A-6B. WASP is required for macrophage dependent carcinoma cell invasion in vivo. (A) Schematic illustration of in vivo invasion assay. (B) Quantification of the number of cells collected into the needle after 4 hours with EGF or without EGF (buffer) from wildtype, WASP+/− or WASP−/− mice bearing MTLn3 tumor. Cell counting was performed single blinded where the counter was not aware of the genotype of the mice. n=4 independent WT and 4 WASp−/− mice used) Error bars signify SEM. ** p<0.01 compared to buffer and EGF needle in WASP−/− mice.
The presence and absence of WASP in tumors was further characterized to determine the precise defect in the absence of WASP that led to reduced metastasis. […] Carcinoma cell invasiveness in the tumor was monitored and analyzed using a well established in vivo needle invasion assay that mimics the invasion of carcinoma cells into a blood vessel, according to Wyckoff et al. (Wyckoff, Segall et al. 2000). […] Additionally, a reduction was also observed in the motility of carcinoma cells in the tumors of WASP deficient mice as compared with control mice (FIG. 7).

[1] = test system: intracellular levels of ATP; conditions: non-specific effects; cited from earlier work
N-WASP = N-WASP (Homo sapiens, UniProt O00401); conditions: Peterson et al., 2004; cited from earlier work
Chain of N-WASP (O00401 whole entry, species assumed): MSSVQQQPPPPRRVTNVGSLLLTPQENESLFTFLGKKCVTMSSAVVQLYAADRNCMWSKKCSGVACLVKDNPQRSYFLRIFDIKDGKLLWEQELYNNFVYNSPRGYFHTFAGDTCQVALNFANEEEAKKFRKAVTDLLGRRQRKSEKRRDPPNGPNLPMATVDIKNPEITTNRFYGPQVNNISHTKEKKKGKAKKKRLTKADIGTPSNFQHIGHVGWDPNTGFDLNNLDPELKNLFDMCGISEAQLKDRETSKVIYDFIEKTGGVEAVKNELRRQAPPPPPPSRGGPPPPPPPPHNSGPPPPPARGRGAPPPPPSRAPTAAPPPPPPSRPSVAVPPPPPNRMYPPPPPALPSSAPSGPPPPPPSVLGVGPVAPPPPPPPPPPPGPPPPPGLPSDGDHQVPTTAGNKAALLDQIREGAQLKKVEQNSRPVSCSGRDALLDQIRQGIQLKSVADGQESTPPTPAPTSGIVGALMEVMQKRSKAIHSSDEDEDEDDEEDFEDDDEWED

WASP = target: T1, WASP (Homo sapiens, UniProt P42768); conditions: cited from earlier work
T1 sequence (P42768 1-502): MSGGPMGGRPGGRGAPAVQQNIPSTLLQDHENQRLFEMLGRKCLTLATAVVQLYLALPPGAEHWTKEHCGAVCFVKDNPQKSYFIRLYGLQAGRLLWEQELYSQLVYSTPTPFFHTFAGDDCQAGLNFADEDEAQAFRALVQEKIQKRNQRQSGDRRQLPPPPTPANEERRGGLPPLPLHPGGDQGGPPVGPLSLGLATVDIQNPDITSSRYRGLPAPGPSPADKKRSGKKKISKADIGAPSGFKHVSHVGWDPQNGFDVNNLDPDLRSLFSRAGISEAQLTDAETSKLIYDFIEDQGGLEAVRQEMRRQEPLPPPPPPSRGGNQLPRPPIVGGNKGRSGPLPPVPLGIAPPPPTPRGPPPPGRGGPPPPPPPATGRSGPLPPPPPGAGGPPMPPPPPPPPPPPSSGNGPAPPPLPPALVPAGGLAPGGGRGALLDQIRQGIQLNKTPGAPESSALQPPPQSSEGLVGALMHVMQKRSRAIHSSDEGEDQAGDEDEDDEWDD

Row | Molecule | MTLn3 invasion with WASP deficient BMM conditioned media (MTLn3) | number of carcinoma cells collected into needle (MTLn3 tumor; tumor bearing WASP-deficient mice) | number of carcinoma cells collected into needle (MTLn3 tumor; tumor bearing control mice) | intracellular levels of ATP [1] | inhibition of N-WASP (N-WASP) | inhibition of WASP (WASP)
1 | EGF: epidermal growth factor, carcinoma cell chemoattractant (NSDSECPLSHDGYCLHDGVCMYIEALDKYACNCVVGYIGERCQYRDLKWWELR; UniProt P01133 971-1023, looked up) | restored carcinoma cell invasion | no difference in the number of cells collected | significantly enhanced the number of carcinoma cells collected into a needle |  |  | 
2 | CN(C)C[C@H](O)Cn1c2ccc(Br)cc2c2cc(Br)ccc21 (racemic) [wiskostatin] |  |  |  | lowers the intracellular levels of ATP | inhibitor of N-WASP | also inhibits WASP

From patent US20120077734A1, “Methods and assays for treating conditions in which macrophages play a pathogenic role” (priority 2010, published 2012)
